According to patent EP1614683B1, “Indazole compounds and pharmaceutical compositions for inhibiting protein kinases, and methods for their use” (priority 1999, dated 2001):
pIC50, pKi: −log10 of the molar value. Where two headings read alike, the source gives them in different places.

What was measured:
human CHK1 (FL-CHK1) = molecular target: T1, human CHK1 (FL-CHK1) (Homo sapiens, UniProt O14757); test: CHK1 coupled spectrophotometric assay; assay type: biochemical
T1 construct: C-terminally His-tagged full-length human CHK1 (FL-CHK1) was expressed using the baculovirus/insect cell system; made in house; host or cells: baculovirus/insect cell system
T1 sequence (O14757 1-476): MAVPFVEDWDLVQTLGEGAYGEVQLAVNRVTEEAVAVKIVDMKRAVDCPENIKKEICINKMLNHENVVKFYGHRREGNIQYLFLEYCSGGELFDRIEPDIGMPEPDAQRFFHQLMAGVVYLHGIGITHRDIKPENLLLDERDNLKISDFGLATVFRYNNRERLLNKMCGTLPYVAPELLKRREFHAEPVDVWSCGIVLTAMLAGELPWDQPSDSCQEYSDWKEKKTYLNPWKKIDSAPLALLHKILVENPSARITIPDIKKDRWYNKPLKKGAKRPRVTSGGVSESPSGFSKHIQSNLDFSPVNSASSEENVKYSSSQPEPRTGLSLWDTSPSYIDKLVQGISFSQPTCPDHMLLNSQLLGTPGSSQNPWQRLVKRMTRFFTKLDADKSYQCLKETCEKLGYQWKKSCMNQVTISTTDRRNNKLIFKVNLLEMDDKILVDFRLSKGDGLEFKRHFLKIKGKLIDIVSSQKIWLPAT
Text: CHK1 Construct for Assay: C-terminally His-tagged full-length human CHK1 (FL-CHK1) was expressed using the baculovirus/insect cell system. […] The protein was purified by conventional chromatographic techniques.
The production of ADP from ATP that accompanies phosphoryl transfer to the synthetic substrate peptide Syntide-2 ([…]) was coupled to oxidation of NADH using phosphoenolpyruvate (PEP) through the actions of pyruvate kinase (PK) and lactic dehydrogenase (LDH). The oxidation of NADH was monitored by following the decrease of absorbance at 340 nm (∈340 = 6.22 cm^-1 mM^-1) using a HP8452 spectrophotometer. […] Assays were initiated with 10 nM of FL-CHK1. Ki values were determined by measuring initial enzyme activity in the presence of varying concentrations of test compounds. The data were analyzed using Enzyme Kinetic and Kaleidagraph software.

LCK tyrosine kinase = LCK tyrosine kinase (Homo sapiens, UniProt P06239, C224D/P223M); test: LCK spectrophotometric assay; assay type: biochemical
LCK tyrosine kinase, sequence (P06239 223-509 P223M/C224D): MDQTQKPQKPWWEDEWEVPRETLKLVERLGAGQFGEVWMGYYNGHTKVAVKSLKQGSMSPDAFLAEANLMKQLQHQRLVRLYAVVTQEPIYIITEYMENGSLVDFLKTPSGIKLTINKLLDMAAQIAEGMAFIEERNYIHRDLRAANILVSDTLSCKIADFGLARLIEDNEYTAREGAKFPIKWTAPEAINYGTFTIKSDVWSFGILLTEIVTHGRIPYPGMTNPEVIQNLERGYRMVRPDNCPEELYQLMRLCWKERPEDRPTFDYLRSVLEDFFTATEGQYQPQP
Protocol: The spectrophotometric assay was carried out as described above for VEGF-R2, except for the following changes in concentration: LCK = 60 nM, MgCl2 = 0 mM, poly(E4Y1) = 20 mM.

in vitro = in vitro ADME, human; details: human liver microsomes, 5 µM test compound, 37 °C, 2 h
Outline: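 HLM diluted to 5 mg/mL in 100 mM KPO4, preincubated 10 min at 37 °C with NADPH-regenerating system. Compound (5 µM final) incubated at 37 °C in triplicate, sampled at 0 and 2 h into ice-cold acetonitrile, then LC-MS analysis.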

human FGF-R1 = human FGF-R1 (Homo sapiens, UniProt P11362, C488A/C584S/L457V); test: FGF-R spectrophotometric assay; assay type: biochemical
human FGF-R1, sequence (P11362 456-766 L457V/C488A/C584S): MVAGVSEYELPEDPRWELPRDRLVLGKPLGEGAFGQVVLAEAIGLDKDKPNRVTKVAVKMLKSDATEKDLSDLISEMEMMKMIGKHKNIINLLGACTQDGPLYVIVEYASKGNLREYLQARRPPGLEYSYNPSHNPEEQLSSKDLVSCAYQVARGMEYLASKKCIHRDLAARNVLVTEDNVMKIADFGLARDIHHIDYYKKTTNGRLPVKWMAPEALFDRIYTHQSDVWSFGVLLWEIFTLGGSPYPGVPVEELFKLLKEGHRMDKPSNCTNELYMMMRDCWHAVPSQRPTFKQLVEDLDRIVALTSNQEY
Protocol: The spectrophotometric assay was carried out as described above for VEGF-R2, except for the following changes in concentration: FGF-R = 50 nM, ATP = 2 mM, and poly(E4Y1) =15 mM.

[1] = system: human umbilical vein endothelial cells (HUVEC); test: HUVEC proliferation assay (VEGF-stimulated, MTT); assay type: cell-based; details: Homo sapiens, HUVEC, Table 1
in vivo = details: mouse, plasma, pH 2.3
[2] = molecular target: unphosphorylated VEGF-R2Δ50 (Homo sapiens, UniProt P35968, DEL940-989/E990V); test: biochemical; details: read-out: FLVK ** (% inhibition)
unphosphorylated VEGF-R2Δ50, sequence (P35968 with tags, fused parts or gaps DEL940-989/E990V limits assumed): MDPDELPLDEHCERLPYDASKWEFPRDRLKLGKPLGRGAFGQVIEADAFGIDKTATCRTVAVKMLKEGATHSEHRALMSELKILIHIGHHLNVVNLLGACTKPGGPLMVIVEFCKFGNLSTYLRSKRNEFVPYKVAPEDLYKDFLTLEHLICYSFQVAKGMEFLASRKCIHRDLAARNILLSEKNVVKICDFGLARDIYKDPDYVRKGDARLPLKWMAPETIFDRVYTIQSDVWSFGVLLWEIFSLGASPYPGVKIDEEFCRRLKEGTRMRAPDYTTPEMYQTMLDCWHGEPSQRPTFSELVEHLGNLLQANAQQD

[3] = read-out: CHK-1* (% inhibition @ 50 µM)
[4] = Table 1, compound concentration 1 µM, read-out: Lck-P* (% inhibition)
[5] = Table 1, compound concentration 1 µM, read-out: FGF-P* (% inhibition)
[6] = + albumin, read-out: HUVEC + albumin IC50
[7] = IP, 25 mg/kg, vehicle PEG400:H2O pH 2.3 30:70
[8] = PO, 50 mg/kg, vehicle PEG400:H2O pH 2.3 30:70

“3-(1H-benzoimidazol-2-yl)-N-(4-hydroxy-3-methylphenyl)-1H-indazole-6-carboxamide [Example 53(c)]” gave a pKi (human CHK1 (FL-CHK1); Table 3; read-out: CHK-1* (Ki)) of 5.96.

`Oc1ccc(-c2ccc3c(-c4cc5ccccc5o4)n[nH]c3c2)cc1OCc1ccccc1` [2(e), 3-(Benzofuran-2-yl)-6-(3-benzyloxy-4-hydroxy-phenyl)-1H-indazole] gave an inhibition at 20 µM (human CHK1 (FL-CHK1); read-out: CHK -1* (% inhibition @ 20 µM)) of 5%.

Work on `COCOc1ccc(Oc2ccc3c(/C=C/c4ccccc4)n[nH]c3c2)cc1` [8(b), 3-(E-styryl)-6-[4-(methoxymethoxy)phenoxy]-1H-indazole] yielded an inhibition at 50 µM (human CHK1 (FL-CHK1); [3]) of 12%.

For `O=C(Nc1cccc(C(=O)c2ccc3c(/C=C/c4ccccc4)n[nH]c3c2)c1)c1ccncc1` [19(j), 6-[3-(pyridin-4-ylcarboxamido)benzoyl]-3-E-styryl-1H-indazole], the inhibition at 1 µM (LCK tyrosine kinase; [4]) was 23%, the T1/2 (IP, 25 mg/kg, vehicle PEG400:H2O pH 2.3 60:40) was 1.6 h and the T1/2 (PO, 50 mg/kg, vehicle PEG400:H2O pH 2.3 60:40) was 1.2 h. For the same molecule, the remaining at 2 h, 5 µM (in vitro; read-out: % remain (HLM, 2 h)) was 66%, the inhibition at 1 µM (human FGF-R1; [5]) was 44% and the pIC50 [1, 6] was 7.30. The pIC50 ([1]; read-out: HUVEC IC50) was 8.66, the AUC (in vivo; ip, 25 mg/kg) was 23200 ng·h/mL and the AUC (in vivo; po, 50 mg/kg) was 5890 ng·h/mL.

`CN(c1ccccc1)c1ccc2c(/C=C/c3ccccc3)n[nH]c2c1` [Example 14, Methyl-phenyl-(3-styryl-1H-indazol-6-yl)-amine] gave an inhibition at 25 µM (human CHK1 (FL-CHK1); read-out: CHK -1* (% inhibition @ 25 µM)) of 12%.

With `Cc1c(O)ccc(NC(=O)c2ccc3c(-c4nc5ccccc5[nH]4)n[nH]c3c2)c1C` [Example 53(d), 3-(1H-benzoimidazol-2-yl)-N-(4-hydroxy-2,3-dimethylphenyl)-1H-indazole-6-carboxamide] the “CHK-1* (inhibition @ 100 µM)” value (human CHK1 (FL-CHK1); Table 3; @ 100 µM; NI = no significant inhibition) was “Nl @ 100 µM”.

Molecule `CSc1cc(O)ccc1-c1ccc2c(-c3nc4ccccc4[nH]3)n[nH]c2c1` [Reference Example 24(k), 3-1H-Benzoimidazol-2-yl-6.(2-methylsulfanyl-4-hydroxyphenyl}-1H-indazole] has an inhibition at 1 µM (LCK tyrosine kinase; read-out: Lck* (% inhibition)) of 89% and an inhibition at 1 µM (human CHK1 (FL-CHK1); read-out: CHK1* (% inhibition)) of 81%.

For `COc1cc(O)ccc1-c1ccc2c(-c3nc4ccncc4[nH]3)n[nH]c2c1` [Reference Example 25(a), 3-(3H-Imidazo[4,5-c]pyridin-2-yl)-6-(4-hydroxy-2-methoxyphenyl)-1H-indazole], the inhibition at 1 µM (LCK tyrosine kinase; read-out: Lck* (% inhibition)) was 44%, the inhibition at 1 µM (human FGF-R1; read-out: FGF* (% inhibition)) was 62% and the inhibition at 1 µM (human CHK1 (FL-CHK1); read-out: CHK1* (% inhibition)) was 49%.

`COc1cc(O)ccc1-c1ccc2c(-c3nc4ccc(C(=O)NCCN5CCOCC5)cc4[nH]3)n[nH]c2c1` [Reference Example 25(b), 3-[6-(2-morpholin-4-yl-ethylcarbamoyl)-1H-benzoimidazol-2-yl]-6-(2-methoxy-4-hydroxyphenyl)-1H-indazole] showed an inhibition at 1 µM (LCK tyrosine kinase; read-out: Lck* (% inhibition)) of 87%, an inhibition at 1 µM (human FGF-R1; read-out: FGF* (% inhibition)) of 87% and an inhibition at 1 µM (human CHK1 (FL-CHK1); read-out: CHK1* (% inhibition)) of 83%.

For `COc1cc(O)ccc1-c1ccc2c(-c3nc4ccc(N5CCN(C)CC5)cc4[nH]3)n[nH]c2c1` [Reference Example 25(c), 3-[6-(4-methylpiperazin-1-yl)-1H-benzoimidazol-2-yl]-6-(2-methoxy-4-hydroxyphenyl)-1H-indazole], the inhibition at 1 µM (human FGF-R1; read-out: FGF* (% inhibition)) was 96% and the inhibition at 1 µM (human CHK1 (FL-CHK1); read-out: CHK1* (% inhibition)) was 90%.

`COc1cc(O)ccc1-c1ccc2c(-c3nc4c(N5CCN(C)CC5)cccc4[nH]3)n[nH]c2c1` [Reference Example 25(d)] gave an inhibition at 1 µM (LCK tyrosine kinase; read-out: Lck* (% inhibition)) of 60%, an inhibition at 1 µM (human FGF-R1; read-out: FGF* (% inhibition)) of 80% and an inhibition at 1 µM (human CHK1 (FL-CHK1); read-out: CHK1* (% inhibition)) of 87%.

With `COc1cc(O)ccc1-c1ccc2c(-c3ncc[nH]3)n[nH]c2c1` [Reference Example 25(e), 3-imidazol-2-yl-6-(2-methoxy-4-hydroxyphenyl)-1H-indazole] the inhibition at 1 µM (LCK tyrosine kinase; read-out: Lck* (% inhibition)) was 13%, the inhibition at 1 µM (human FGF-R1; read-out: FGF* (% inhibition)) was 26% and the inhibition at 1 µM (human CHK1 (FL-CHK1); read-out: CHK1* (% inhibition)) was 16%.

In the case of `COc1cc(O)ccc1-c1ccc2c(-c3nc4cc(N(C)C)ccc4[nH]3)n[nH]c2c1` [Reference Example 25(h), 3-(5-Dimethylamino-1H-benzoimidazol-2-yl)-6-(2-methoxy-4-hydroxy-phenyl)-1H-indazole], the inhibition at 1 µM (LCK tyrosine kinase; read-out: Lck* (% inhibition)) was 87%, the inhibition at 1 µM (human FGF-R1; read-out: FGF* (% inhibition)) was 91% and the inhibition at 1 µM (human CHK1 (FL-CHK1); read-out: CHK1* (% inhibition)) was 86%.

For `COc1cccc(-c2ccc3c(/C=C/c4ccccc4)n[nH]c3c2)c1` [Reference Example 27(b)], the inhibition at 50 µM (human CHK1 (FL-CHK1); [3]) was 28%.

In the case of `COc1ccc(-c2ccc3c(/C=C/c4ccccc4)n[nH]c3c2)cc1` [Reference Example 27(c)], the inhibition at 5 µM (human CHK1 (FL-CHK1); read-out: CHK-1* (% inhibition @ 5 µM)) was 11%.

`C(=C\c1n[nH]c2cc(-c3cccc4ccccc34)ccc12)/c1ccccc1` [Reference Example 27(d)] gave an inhibition at 10 µM (human CHK1 (FL-CHK1); read-out: CHK-1* (% inhibition @ 10 µM)) of 14%.

Molecule `COc1ccc(-c2ccc3c(/C=C/c4ccccc4)n[nH]c3c2)cc1OC` [Reference Example 27(j)] has an inhibition at 50 µM (human CHK1 (FL-CHK1); [3]) of 15%.

For `Clc1cccc(Cl)c1/C=C/c1n[nH]c2cc(-c3ccncc3)ccc12` [Reference Example 29(a), 6-pyrid-4-yl-3-E-[2-(2,6-dichlorophenyl)ethenyl]-1H-indazole], the “CHK-1* (inhibition @ 25 µM)” value (human CHK1 (FL-CHK1); Table 3; @ 25µM; NI = no significant inhibition) was “Nl @ 25µM”.

For `Fc1ccc(F)c(/C=C/c2n[nH]c3cc(-c4ccncc4)ccc23)c1` [Reference Example 29(s), 6-pyrid-4-yl-3-E-[2-(2,5-difluorophenyl)ethenyl]-1H-indazole], the pKi (human CHK1 (FL-CHK1); read-out: CHK-1* (Ki); Table 3) was 4.96.

`CCn1nc(C)cc1C(=O)Nc1cccc(Oc2ccc3c(/C=C/c4cn(C)c(C)n4)n[nH]c3c2)c1` [Reference Example 31(f), 6-[3-((1-Ethyl-3-methyl-1H-pyrazol-5-yl)carboxamido)phenoxy]-3-E-[2-(1,2-dimethyl-1H-imidazol-4-yl)ethenyl]-1H-indazole] showed an inhibition at 1 µM (LCK tyrosine kinase; [4]) of 62%, a T1/2 (PO, 25 mg/kg, vehicle PEG400:H2O pH 2.3 30:70) of 2.6 h and an inhibition at 1 µM (human FGF-R1; [5]) of 99%. The pIC50 [1, 6] was < 8.00, the inhibition at 0.05 µM [2] was 97% and the AUC (in vivo; po, 25 mg/kg) was > 245000 ng·h/mL.

In the case of `O=C(Nc1ccccc1)c1ccccc1Sc1ccc2c(/C=C/c3ccccn3)n[nH]c2c1` [Reference Example 33(c), 6-[2-(phenylcarbamoyl)phenylsulfanyl]-3-E-[2-(pyrldin-2-yl)ethenyl]-1H-indazole], the inhibition at 1 µM (LCK tyrosine kinase; [4]) was 26%, the “Cmin (7 hr conc.)” value [7] was 7 ng/mL and the T1/2 [7] was 1.2 h. For the same molecule, the “Cmin (7 hr conc.)” value [8] was 5 ng/mL, the T1/2 [8] was 3.0 h and the “% remain (HLM, 2 h)” value (in vitro) was 16%. The inhibition at 1 µM (human FGF-R1; [5]) was 76%, the pIC50 [1, 6] was 8.18 and the AUC (in vivo; ip, 25 mg/kg) was 697 ng·h/mL. For the same molecule, the AUC (in vivo; po, 50 mg/kg) was 183 ng·h/mL.

For `O=C(c1cccc(NC(=O)c2ccc(Cl)s2)c1)c1ccc2c(/C=C/c3ccccn3)n[nH]c2c1` [Reference Example 41(o), 6-[3-((5-chlorothien-2-yl)carboxamido)benzoyl]-3-E-[2-(pyridin-2-yl)ethenyl]-1H-indazole], the inhibition at 1 µM (LCK tyrosine kinase; [4]) was 77%, the “% remain (HLM, 2 h)” value (in vitro) was 94% and the inhibition at 1 µM (human FGF-R1; [5]) was 74%. For the same molecule, the pIC50 [1, 6] was 8.00 and the AUC (in vivo; ip, 25 mg/kg) was > 33800 ng·h/mL.
